Calls of active or inactive are those of the source. The calls are words filed in the database; no cut-off is given here.
How the values were obtained:
[1] = system: Mus musculus; test: Antiinflammatory activity in mouse assessed as xylene-induced ear edema at 100 mg/kg, ip administered prior to xylene stimulation and measured after 1 hr (reference value: 2.05 +/- 0.40 mg); assay type: functional
[2] = system: Mus musculus; test: Antiinflammatory activity in mouse assessed as reduction in xylene-induced ear edema at 100 mg/kg, ip administered after prior to xylene stimulation and measured after 1 hr relative to control; assay type: functional
[3] = system: Mus musculus; test: Analgesic activity in mouse assessed as reduction in acetic acid-induced abdominal writhing at 100 mg/kg, ip relative to control; assay type: functional
[4] = target: Prostaglandin G/H synthase 1 (Homo sapiens, UniProt P23219); test: Inhibition of COX1 (unknown origin); assay type: single protein
Chain of Prostaglandin G/H synthase 1 (P23219 whole entry): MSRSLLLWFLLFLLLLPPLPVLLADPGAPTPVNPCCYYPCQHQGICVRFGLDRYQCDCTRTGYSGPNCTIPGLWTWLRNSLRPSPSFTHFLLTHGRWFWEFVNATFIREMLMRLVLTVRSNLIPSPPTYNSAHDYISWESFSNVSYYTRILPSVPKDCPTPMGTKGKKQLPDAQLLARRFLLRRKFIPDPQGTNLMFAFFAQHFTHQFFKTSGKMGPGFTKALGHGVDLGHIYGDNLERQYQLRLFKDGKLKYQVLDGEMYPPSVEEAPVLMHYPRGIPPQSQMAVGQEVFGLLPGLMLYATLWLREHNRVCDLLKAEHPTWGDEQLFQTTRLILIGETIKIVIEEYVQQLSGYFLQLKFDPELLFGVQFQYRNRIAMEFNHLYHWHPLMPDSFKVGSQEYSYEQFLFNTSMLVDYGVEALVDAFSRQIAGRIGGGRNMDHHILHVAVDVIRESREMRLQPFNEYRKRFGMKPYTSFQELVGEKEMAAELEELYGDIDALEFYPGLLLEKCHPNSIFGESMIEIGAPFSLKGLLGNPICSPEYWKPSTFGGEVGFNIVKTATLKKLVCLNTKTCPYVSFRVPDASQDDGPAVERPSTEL

[5] = target: T1, Prostaglandin G/H synthase 2 (Homo sapiens, UniProt P35354); test: Inhibition of COX2 (unknown origin)
T1 sequence (P35354 whole entry): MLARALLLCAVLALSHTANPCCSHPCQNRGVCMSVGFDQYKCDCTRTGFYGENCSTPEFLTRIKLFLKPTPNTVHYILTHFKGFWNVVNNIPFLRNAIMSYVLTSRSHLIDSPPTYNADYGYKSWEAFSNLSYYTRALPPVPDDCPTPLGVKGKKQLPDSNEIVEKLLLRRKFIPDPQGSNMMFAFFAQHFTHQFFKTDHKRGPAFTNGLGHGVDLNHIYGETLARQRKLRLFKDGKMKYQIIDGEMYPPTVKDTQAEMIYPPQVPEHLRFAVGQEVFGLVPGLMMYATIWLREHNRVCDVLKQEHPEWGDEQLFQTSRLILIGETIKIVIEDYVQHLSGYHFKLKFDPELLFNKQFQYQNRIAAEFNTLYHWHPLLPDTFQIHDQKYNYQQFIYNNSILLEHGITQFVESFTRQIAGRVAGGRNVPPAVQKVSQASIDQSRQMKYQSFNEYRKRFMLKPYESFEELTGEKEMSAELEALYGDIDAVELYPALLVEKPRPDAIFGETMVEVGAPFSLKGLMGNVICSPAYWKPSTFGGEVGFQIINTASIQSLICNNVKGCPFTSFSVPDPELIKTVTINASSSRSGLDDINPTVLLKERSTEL

[6] = species: Homo sapiens; test: Selectivity index, ratio of IC50 for COX1 (unknown origin) to IC50 for COX2 (unknown origin)
[7] = system: Rattus norvegicus; test: Antiinflammatory activity against carrageenan-induced paw edema in rat assessed as inhibition of paw edema at 100 mg/kg, ip administered at 1 hr prior to carrageenan challenge and measured after 4 hrs by electronic-onkographic analysis; assay type: functional; details: time 5 hrs

## Fc1ccccc1COc1nc2ccccc2s1
[1]
  Activity: 0.52 mg
[2]
  inhibition in vivo at 100 mg/kg: 74.6%
[3]
  inhibition in vivo at 100 mg/kg: 51.9%

## Brc1ccccc1COc1nc2ccccc2s1
[1]
  Activity: 0.5 mg
[2]
  inhibition in vivo at 100 mg/kg: 75.6%
[3]
  inhibition in vivo at 100 mg/kg: 51.9%

## Cc1ccc(COc2nc3ccccc3s2)cc1
[1]
  Activity: 2.01 mg
[2]
  inhibition in vivo at 100 mg/kg: 1.95%
[3]
  inhibition: inactive

## COc1ccc2c(c1)c(CC(=O)O)c(C)n2C(=O)c1ccc(Cl)cc1 [INDOMETHACIN]
[1]
  Activity: 0.36 mg
[2]
  inhibition in vivo at 100 mg/kg: 82.4%

## FC(F)(F)c1ccc(COc2nc3ccccc3s2)cc1
[1]
  Activity: 1.8 mg
[2]
  inhibition in vivo at 100 mg/kg: 12.2%
[3]
  inhibition in vivo at 100 mg/kg: 99.6%

## Clc1ccc(OCCOc2nc3ccccc3s2)cc1
[1]
  Activity: 0.69 mg
[2]
  inhibition in vivo at 100 mg/kg: 66.3%
[3]
  inhibition in vivo at 100 mg/kg: 68.6%

## Brc1ccc(OCCOc2nc3ccccc3s2)c(Br)c1
[1]
  Activity: 0.26 mg
[2]
  inhibition in vivo at 100 mg/kg: 87.3%
[4]
  IC50: 5080 nM
[3]
  inhibition in vivo at 100 mg/kg: 68.6%
[5]
  IC50: 360 nM
[6]
  Ratio IC50: 14.1

## Clc1cccc(COc2nc3ccccc3s2)c1
[1]
  Activity: 0.41 mg
[2]
  inhibition in vivo at 100 mg/kg: 80%
[3]
  inhibition in vivo at 100 mg/kg: 51.9%

## O=C(c1ccc([N+](=O)[O-])cc1)c1nc2ccc(F)c(Nc3ccccc3[N+](=O)[O-])c2s1
[7]
  inhibition in vivo at 100 mg/kg: 78%

## COc1ccc(COc2nc3ccccc3s2)cc1
[1]
  Activity: 2 mg
[2]
  inhibition in vivo at 100 mg/kg: 2.43%
[3]
  inhibition: inactive

## FC(F)(F)c1ccccc1COc1nc2ccccc2s1
[1]
  Activity: 2.03 mg
[2]
  inhibition in vivo at 100 mg/kg: 9.75%
[3]
  inhibition: inactive

## Fc1ccc(OCCOc2nc3ccccc3s2)cc1
[1]
  Activity: 0.56 mg
[2]
  inhibition in vivo at 100 mg/kg: 72.7%
[3]
  inhibition in vivo at 100 mg/kg: 99.9%

## Cc1cc(C)cc(COc2nc3ccccc3s2)c1
[1]
  Activity: 2.04 mg
[2]
  inhibition in vivo at 100 mg/kg: 0.5%
[3]
  inhibition in vivo at 100 mg/kg: 51.9%

## O=[N+]([O-])c1ccc(COc2nc3ccccc3s2)cc1
[1]
  Activity: 1.96 mg
[2]
  inhibition in vivo at 100 mg/kg: 4.39%
[3]
  inhibition in vivo at 100 mg/kg: 97%

## Fc1cccc(COc2nc3ccccc3s2)c1
[1]
  Activity: 0.27 mg
[2]
  inhibition in vivo at 100 mg/kg: 86.8%
[4]
  IC50: 5220 nM
[3]
  inhibition in vivo at 100 mg/kg: 51.9%
[5]
  IC50: 280 nM
[6]
  Ratio IC50: 18.6

## c1ccc(OCCOc2nc3ccccc3s2)cc1
[1]
  Activity: 1.9 mg
[2]
  inhibition in vivo at 100 mg/kg: 7.31%
[3]
  inhibition: inactive

## Brc1ccc(OCCOc2nc3ccccc3s2)cc1
[1]
  Activity: 0.11 mg
[2]
  inhibition in vivo at 100 mg/kg: 94.6%
[4]
  IC50: 5320 nM
[3]
  inhibition in vivo at 100 mg/kg: 68.6%
[5]
  IC50: 500 nM
[6]
  Ratio IC50: 10.6

## Clc1ccc(OCCOc2nc3ccccc3s2)c(Cl)c1
[1]
  Activity: 0.3 mg
[2]
  inhibition in vivo at 100 mg/kg: 85.4%
[4]
  IC50: 4280 nM
[3]
  inhibition in vivo at 100 mg/kg: 68.6%
[5]
  IC50: 410 nM
[6]
  Ratio IC50: 10.4

## Clc1ccc(COc2nc3ccccc3s2)cc1
[1]
  Activity: 0.35 mg
[2]
  inhibition in vivo at 100 mg/kg: 82.9%
[4]
  IC50: 5550 nM
[3]
  inhibition in vivo at 100 mg/kg: 51.9%
[5]
  IC50: 770 nM
[6]
  Ratio IC50: 7.2

## COc1cc(COc2nc3ccccc3s2)cc(OC)c1
[1]
  Activity: 1.14 mg
[2]
  inhibition in vivo at 100 mg/kg: 44.4%
[3]
  inhibition in vivo at 100 mg/kg: 51.9%

## Fc1ccc(COc2nc3ccccc3s2)cc1
[1]
  Activity: 0.19 mg
[2]
  inhibition in vivo at 100 mg/kg: 90.7%
[4]
  IC50: 6200 nM
[3]
  inhibition in vivo at 100 mg/kg: 51.9%
[5]
  IC50: 370 nM
[6]
  Ratio IC50: 16.8

## Brc1cccc(COc2nc3ccccc3s2)c1
[1]
  Activity: 0.46 mg
[2]
  inhibition in vivo at 100 mg/kg: 77.6%
[3]
  inhibition in vivo at 100 mg/kg: 51.9%

## N#Cc1ccc(COc2nc3ccccc3s2)cc1
[1]
  Activity: 1.79 mg
[2]
  inhibition in vivo at 100 mg/kg: 12.7%
[3]
  inhibition: inactive

## Brc1ccc(COc2nc3ccccc3s2)cc1
[1]
  Activity: 0.45 mg
[2]
  inhibition in vivo at 100 mg/kg: 78%
[3]
  inhibition in vivo at 100 mg/kg: 51.9%

## c1ccc(COc2nc3ccccc3s2)cc1
[1]
  Activity: 0.64 mg
[2]
  inhibition in vivo at 100 mg/kg: 68.8%
[3]
  inhibition in vivo at 100 mg/kg: 51.9%

## Clc1ccccc1COc1nc2ccccc2s1
[1]
  Activity: 1.75 mg
[2]
  inhibition in vivo at 100 mg/kg: 14.6%
[3]
  inhibition: inactive

## Fc1ccc(OCCOc2nc3ccccc3s2)c(F)c1
[1]
  Activity: 0.9 mg
[2]
  inhibition in vivo at 100 mg/kg: 56.1%
[3]
  inhibition in vivo at 100 mg/kg: 68.6%
